Reference: US7491819B1 (priority 2004, dated 2009)
Like-named read-outs stand apart in the source and are kept apart here.

Legend:
HIV-integrase = target: T1, HIV-integrase (Human immunodeficiency virus type 1 group M subtype B, UniProt P12497); assay: HIV-Integrase Inhibition Activity (SPA bead strand-transfer assay); type: biochemical
T1 construct: Recombinant integrase (0.26 ng) was incubated with the beads
Summary of the method: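 Biotin-labelled substrate DNA (5 pmole) bound to streptavidin SPA beads, preloaded with recombinant integrase (0.26 ng) for 90 min at 37° C, then washed. Inhibitors and 0.1 fmol P33-labelled target DNA added; reaction stopped with 10 mM EDTA. Integration read as scintillation CPM.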

NL-Rluc virus = assay: Inhibition of HIV replication (recombinant NL-Rluc virus, luciferase); type: cell-based
[1] = Table 2a, read-out: HIV-Integrase Inhibition Activity
[2] = Human immunodeficiency virus 1, read-out: Inhibition of HIV replication
[3] = Human immunodeficiency virus 1, Table 2, serum condition not stated (10% FBS, 15 mg/ml human serum albumin/10% FBS or 40% human serum/5% FBS), at least 2 experiments, read-out: Activity (inhibition of HIV replication, EC50 class)

| SMILES | IC50 (HIV-integrase; [1]) | EC50 (NL-Rluc virus; [2]) | IC50 (HIV-integrase) | EC50 (NL-Rluc virus; [3]) |
| --- | --- | --- | --- | --- |
| CC1(C)OCCn2c1nc(C(=O)NCc1ccc(F)cc1-n1ncnc1CO)c(O)c2=O [Example 308, Pyrimido[2,1-c][1,4]oxazine-2-carboxamide, N-[[4-fluoro-2-[5-(hydroxymethyl)-1H-1,2,4-triazol-1-yl]phenyl]methyl]-4,6,7,9-tetrahydro-3-hydroxy-9,9-dimethyl-4-oxo-] | 2 to 100 nM | 3 to 100 nM |  |  |
| CC1(C)OCCn2c1nc(C(=O)NCc1ccc(F)cc1-n1cccn1)c(O)c2=O [Example 306, Pyrimido[2,1-c][1,4]oxazine-2-carboxamide, N-[[4-fluoro-2-(1H-pyrazol-1-yl)phenyl]methyl]-4,6,7,9-tetrahydro-3-hydroxy-9,9-dimethyl-4-oxo-] | 2 to 100 nM | 3 to 100 nM |  |  |
| Cc1nc(C)n(-c2cc(F)ccc2CNC(=O)c2nc3n(c(=O)c2O)CCCOC3(C)C)n1 [Example 319, 6H-Pyrimido[2,1-c][1,4]oxazepine-2-carboxamide, N-[[2-(3,5-dimethyl-1H-1,2,4-triazol-1-yl)-4-fluorophenyl]methyl]-4,7,8,10-tetrahydro-3-hydroxy-10,10-dimethyl-4-oxo-] | 2 to 100 nM | 3 to 100 nM |  |  |
| CC1(C)OCCn2c1nc(C(=O)NCc1ccc(F)cc1S(=O)(=O)CCO)c(O)c2=O [Example 312, Pyrimido[2,1-c][1,4]oxazine-2-carboxamide, N-[[4-fluoro-2-[(2-hydroxyethyl)sulfonyl]phenyl]methyl]-4,6,7,9-tetrahydro-3-hydroxy-9,9-dimethyl-4-oxo-] | 2 to 100 nM | 3 to 100 nM |  |  |
| CC1(C)OCCn2c1nc(C(=O)NCc1ccc(F)cc1-n1ccnn1)c(O)c2=O [Example 295, Pyrimido[2,1-c][1,4]oxazine-2-carboxamide, N-[[4-fluoro-2-(1H-1,2,3-triazol-1-yl)phenyl]methyl]-4,6,7,9-tetrahydro-3-hydroxy-9,9-dimethyl-4-oxo-] | 2 to 100 nM | 3 to 100 nM |  |  |
| Cc1nc(C)n(-c2cc(F)ccc2CNC(=O)c2nc3n(c(=O)c2O)CCOC3(C)C)n1 [Example 307, Pyrimido[2,1-c][1,4]oxazine-2-carboxamide, N-[[2-(3,5-dimethyl-1H-1,2,4-triazol-1-yl)-4-fluorophenyl]methyl]-4,6,7,9-tetrahydro-3-hydroxy-9,9-dimethyl-4-oxo-] | 2 to 100 nM | 3 to 100 nM |  |  |
| Cc1nnn(-c2cc(F)ccc2CNC(=O)c2nc3n(c(=O)c2O)CCOCC3(C)C)c1C [Example 302, 4H-Pyrimido[1,2-d][1,4]oxazepine-2-carboxamide, N-[[2-(4,5-dimethyl-1H-1,2,3-triazol-1-yl)-4-fluorophenyl]methyl]-6,7,9,10-tetrahydro-3-hydroxy-10,10-dimethyl-4-oxo-] | 2 to 100 nM | 3 to 100 nM |  |  |
| CC1(C)COP(=O)(c2cc(F)ccc2CNC(=O)c2nc3n(c(=O)c2O)CCOC3(C)C)OC1 [Example 294, Pyrimido[2,1-c][1,4]oxazine-2-carboxamide, N-[[2-(5,5-dimethyl-2-oxido-1,3,2-dioxaphosphorinan-2-yl)-4-fluorophenyl]methyl]-4,6,7,9-tetrahydro-3-hydroxy-9,9-dimethyl-4-oxo-] | 2 to 100 nM | 3 to 100 nM |  |  |
| CCC1(C)OCCn2c1nc(C(=O)NCc1ccc(F)cc1S(C)(=O)=O)c(O)c2=O (stereo not drawn) [Example 314, Pyrimido[2,1-c][1,4]oxazine-2-carboxamide, 9-ethyl-N-[[4-fluoro-2-(methylsulfonyl)phenyl]methyl]-4,6,7,9-tetrahydro-3-hydroxy-9-methyl-4-oxo-] | 2 to 100 nM | 3 to 100 nM |  |  |
| CC1(C)OCCn2c1nc(C(=O)NCc1cccc(C3(C(F)(F)F)NN3)c1)c(O)c2=O [Example 104, Pyrimido[2,1-c][1,4]oxazine-2-carboxamide, 4,6,7,9-tetrahydro-3-hydroxy-9,9-dimethyl-4-oxo-N-[[3-[3-(trifluoromethyl)-3-diaziridinyl]-phenyl]-methyl]-] |  |  | 100 to 1000 nM | 100 to 1000 nM |
| Cc1nncn1-c1cc(F)ccc1CNC(=O)c1nc2n(c(=O)c1O)CCOC2(C)C [Example 303, Pyrimido[2,1-c][1,4]oxazine-2-carboxamide, N-[[4-fluoro-2-(3-methyl-4H-1,2,4-triazol-4-yl)phenyl]methyl]-4,6,7,9-tetrahydro-3-hydroxy-9,9-dimethyl-4-oxo-] | 100 to 1000 nM | > 1000 nM |  |  |
| COP(=O)(O)c1cc(F)ccc1CNC(=O)c1nc2n(c(=O)c1O)CCOC2(C)C [Example 290, Phosphonic acid, [5-fluoro-2-[[[(4,6,7,9-tetrahydro-3-hydroxy-9,9-dimethyl-4-oxopyrimido[2,1-c][1,4]oxazin-2-yl)carbonyl]amino]methyl]phenyl]-, monomethyl ester] | 2 to 100 nM | 100 to 1000 nM |  |  |
| CC1(C)OCCn2c1nc(C(=O)NCc1ccc(F)cc1OC(=O)N1CCOCC1)c(O)c2=O [Example 99, 4-Morpholinecarboxylic acid, 5-fluoro-2-[[[(4,6,7,9-tetrahydro-3-hydroxy-9,9-dimethyl-4-oxopyrimido[2,1-c][1,4]oxazin-2-yl)carbonyl]amino]methyl]phenyl ester] |  |  | 2 to 100 nM | 3 to 100 nM |
| COP(=O)(OC)c1cc(F)ccc1CNC(=O)c1nc2n(c(=O)c1O)CCCOC2(C)C [Example 318, Phosphonic acid, [5-fluoro-2-[[[(4,7,8,10-tetrahydro-3-hydroxy-10,10-dimethyl-4-oxo-6H-pyrimido[2,1-c][1,4]oxazepin-2-yl)carbonyl]amino]methyl]phenyl]-, dimethyl ester] | 2 to 100 nM | 3 to 100 nM |  |  |
| CC(C)(C)c1cn(-c2cc(F)ccc2CNC(=O)c2nc3n(c(=O)c2O)CCCOC3(C)C)nn1 [Example 301, 6H-Pyrimido[2,1-c][1,4]oxazepine-2-carboxamide, N-[[2-[4-(1,1-dimethylethyl)-1H-1,2,3-triazol-1-yl]-4-fluorophenyl]methyl]-4,7,8,10-tetrahydro-3-hydroxy-10,10-dimethyl-4-oxo-] | 2 to 100 nM | 3 to 100 nM |  |  |
| CCSc1cc(F)ccc1CNC(=O)c1nc2n(c(=O)c1O)CCOC2(C)C [Example 311, Pyrimido[2,1-c][1,4]oxazine-2-carboxamide, N-[[2-(ethylthio)-4-fluorophenyl]methyl]-4,6,7,9-tetrahydro-3-hydroxy-9,9-dimethyl-4-oxo-] | 2 to 100 nM | 3 to 100 nM |  |  |
| CC(=O)OCCS(=O)(=O)c1cc(F)ccc1CNC(=O)c1nc2n(c(=O)c1O)CCOC2(C)C [Example 310, Pyrimido[2,1-c][1,4]oxazine-2-carboxamide, N-[[2-[[2-(acetyloxy)ethyl]sulfonyl]-4-fluorophenyl]methyl]-4,6,7,9-tetrahydro-3-hydroxy-9,9-dimethyl-4-oxo-] | 2 to 100 nM | 3 to 100 nM |  |  |
| CC1(C)OCCn2c1nc(C(=O)NCc1ccc(F)cc1P1(=O)OCCO1)c(O)c2=O [Example 291, Pyrimido[2,1-c][1,4]oxazine-2-carboxamide, N-[[4-fluoro-2-(2-oxido-1,3,2-dioxaphospholan-2-yl)phenyl]methyl]-4,6,7,9-tetrahydro-3-hydroxy-9,9-dimethyl-4-oxo-] | 2 to 100 nM | > 1000 nM |  |  |
| CC1(C)OCCn2c1nc(C(=O)NCc1ccc(F)cc1-n1cc(CO)nn1)c(O)c2=O [Example 299, Pyrimido[2,1-c][1,4]oxazine-2-carboxamide, N-[[4-fluoro-2-[4-(hydroxymethyl)-1H-1,2,3-triazol-1-yl]phenyl]methyl]-4,6,7,9-tetrahydro-3-hydroxy-9,9-dimethyl-4-oxo-] | 2 to 100 nM | 3 to 100 nM |  |  |
| CCS(=O)(=O)Nc1cc(F)ccc1CNC(=O)c1nc2n(c(=O)c1O)CCOC2(C)C [Example 305, Pyrimido[2,1-c][1,4]oxazine-2-carboxamide, N-[[2-[(ethylsulfonyl)amino]-4-fluorophenyl]methyl]-4,6,7,9-tetrahydro-3-hydroxy-9,9-dimethyl-4-oxo-] | 2 to 100 nM | 3 to 100 nM |  |  |
| CCC1(C)OCCn2c1nc(C(=O)NCc1ccc(F)cc1S(=O)(=O)N(C)C)c(O)c2=O (stereo not drawn) [Example 315, Pyrimido[2,1-c][1,4]oxazine-2-carboxamide, N-[[2-[(dimethylamino)sulfonyl]-4-fluorophenyl]methyl]-9-ethyl-4,6,7,9-tetrahydro-3-hydroxy-9-methyl-4-oxo-] | 2 to 100 nM | 3 to 100 nM |  |  |
| Cc1ncn(-c2cc(F)ccc2CNC(=O)c2nc3n(c(=O)c2O)CCCOC3(C)C)n1 [Example 317, 6H-Pyrimido[2,1-c][1,4]oxazepine-2-carboxamide, N-[[4-fluoro-2-(3-methyl-1H-1,2,4-triazol-1-yl)phenyl]methyl]-4,7,8,10-tetrahydro-3-hydroxy-10,10-dimethyl-4-oxo-] | 2 to 100 nM | 3 to 100 nM |  |  |
| CC(C)(C)c1cn(-c2cc(F)ccc2CNC(=O)c2nc3n(c(=O)c2O)CCOC3(C)C)nn1 [Example 297, Pyrimido[2,1-c][1,4]oxazine-2-carboxamide, N-[[2-[4-(1,1-dimethylethyl)-1H-1,2,3-triazol-1-yl]-4-fluorophenyl]methyl]-4,6,7,9-tetrahydro-3-hydroxy-9,9-dimethyl-4-oxo-] | 2 to 100 nM | 3 to 100 nM |  |  |
| CC1(C)OCCn2c1nc(C(=O)NCc1ccc(F)cc1P(=O)(O)O)c(O)c2=O [Example 289, Phosphonic acid, [5-fluoro-2-[[[(4,6,7,9-tetrahydro-3-hydroxy-9,9-dimethyl-4-oxopyrimido[2,1-c][1,4]oxazin-2-yl)carbonyl]amino]methyl]phenyl]-] | 2 to 100 nM | > 1000 nM |  |  |
